Results taken from patent US11865157B2, “Compositions and methods of targeting cancer stem cells” (University of Houston System, priority 2016, dated 2024).
Numbered stars: 1 amine (or outer) side, 2 acyl side, 3 side chain; on linkers, the order of the positions; unused ones are H or OH. Square brackets hold non-standard residues; d marks the D form. Peptide text beside a SMILES is read from it. ξ: configuration not given here. Gly(N-piperonyl) = O=C(O)CNCc1ccc2c(c1)OCO2; X1 = CC(c1ccccc1)N(CC(=O)[*:2])[*:1]; Nlys = NCCCCNCC(=O)O; ξK = NCCCCC(N)C(=O)O; ξM = CSCCC(N)C(=O)O; Nme = COCCNCC(=O)O

Columns and labels:
[1] = system: H358 cells; test: Colony formation assay of bead-bound, unbound and unsorted fractions; type: cell-based; settings: 2 weeks of growth, crystal violet
Protocol: (§1) A colony formation assay was performed on the untreated H358 cells and PCS2-bound and PCS2-unbound fractions to further confirm that the cells bound by PCS2 were CSCs. About 500 cells from each of the three fractions were plated into […] wells and grown for 2 weeks. The resulting colonies were then stained with crystal violet.
as §1, with “300-500” for “500”, “cell group” for “the three fractions”, “weeks or until colonies were visible by eye.” for “weeks.”, “violet for approximately 5 minutes and colonies were counted using the MOESM software program, and confirmed though microscopic counting.” for “violet.”
It was determined that the presence of plectin contributes to colony formation and wound healing potential of H358 cells. Plectin antibody-coated magnetic-bead bound fractions form a higher number of colonies compared to unbound and unseparated fraction in the clonogenicity assay in H358 cells The clonogenecity after plectin knockdown was then tested in H358, H460, and H2073 cells (FIG. 25C, 25D). Knockdown of plectin decreases colony formation in H358, H460 and H2073 cells. Knockdown of plectin leads to a decrease in mobility and scratch healing in H358 cells. […]

[2] = system: H358 cells; test: Clonogenicity assay under treatment; type: cell-based; settings: 500 cells/well, 30 and 100 μM, 2 weeks
Protocol: To further validate that PCS2D1 inhibiting CSCs, the effects of PCS2D1 against a stem-cell-associated phenotype were studied with regards to the capacity to form colonies from a single cell by using the clonogenicity assay. About 300 cells were plated onto 35 mm cell culture plates with either 0, 1, 10, 30, or 100 μM of PCS2D1, and allowed to grow for 2 weeks. After staining with crystal violet, both the number of colonies and the overall morphology of the colonies were evaluated.
The clonogenicity assay was repeated with H358 cells, 500 cells/well, using 0, 10, 30 and 100 μM PCS2 treatment over 2 weeks. […] To confirm that this was due to the specific targeting on CSCs, the clonogenicity assay was performed again over 8 days, with the treatment performed from day 7 to 8 instead, to allow the colonies to establish. This was done alongside control cells plated on chamber slides and then grown under the same conditions.

COCCNCC(=O)N(CCCCN)CC(=O)N(CC(=O)N(CC(=O)N(CCCCN)CC(=O)NC(CCCCN)C(=O)N[C@H](CCCCN)C(=O)NC(CCSC)C(N)=O)C(C)c1ccccc1)Cc1ccc2c(c1)OCO2 (some centres unmarked) [PCS2] (H-[Nme][Nlys][Gly(N-piperonyl)][X1][Nlys][ξK][dK][ξM]-NH2)
number of colonies from bead-bound fraction vs unbound or unsorted fractions [1]: significantly higher number of colonies | colonies formed [2]: Significantly fewer colonies formed
